“Also recorded” adds a separate entry of the source.
Key:
TRPV4 = TRPV4 (Homo sapiens, UniProt Q9HBA0); details: cited from earlier work
TRPV2 = biological target: T1, TRPV2 (Homo sapiens, UniProt Q9Y5S1); details: cited from earlier work
T1 sequence (Q9Y5S1 1-764): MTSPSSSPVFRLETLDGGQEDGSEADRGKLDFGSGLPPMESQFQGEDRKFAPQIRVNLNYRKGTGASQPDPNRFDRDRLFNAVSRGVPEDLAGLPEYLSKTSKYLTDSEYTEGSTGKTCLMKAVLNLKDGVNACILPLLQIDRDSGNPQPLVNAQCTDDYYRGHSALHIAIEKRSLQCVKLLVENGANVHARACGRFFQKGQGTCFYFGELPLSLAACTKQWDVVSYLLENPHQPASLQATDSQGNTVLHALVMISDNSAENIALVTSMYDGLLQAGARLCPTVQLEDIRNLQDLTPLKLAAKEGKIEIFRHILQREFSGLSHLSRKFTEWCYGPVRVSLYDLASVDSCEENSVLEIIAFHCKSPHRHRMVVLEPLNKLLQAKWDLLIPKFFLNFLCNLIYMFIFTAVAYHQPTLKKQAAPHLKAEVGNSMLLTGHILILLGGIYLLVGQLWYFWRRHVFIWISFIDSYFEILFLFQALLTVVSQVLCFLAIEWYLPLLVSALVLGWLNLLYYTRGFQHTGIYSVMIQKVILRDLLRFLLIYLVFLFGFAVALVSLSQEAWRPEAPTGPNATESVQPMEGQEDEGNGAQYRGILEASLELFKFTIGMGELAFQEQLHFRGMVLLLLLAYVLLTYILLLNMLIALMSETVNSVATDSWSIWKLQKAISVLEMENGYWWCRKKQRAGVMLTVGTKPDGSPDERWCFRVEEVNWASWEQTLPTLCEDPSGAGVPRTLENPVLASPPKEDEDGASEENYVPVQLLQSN

TRPA1 = TRPA1 (Homo sapiens, UniProt O75762); details: cited from earlier work
Sequence of TRPA1 (O75762 whole entry, species assumed): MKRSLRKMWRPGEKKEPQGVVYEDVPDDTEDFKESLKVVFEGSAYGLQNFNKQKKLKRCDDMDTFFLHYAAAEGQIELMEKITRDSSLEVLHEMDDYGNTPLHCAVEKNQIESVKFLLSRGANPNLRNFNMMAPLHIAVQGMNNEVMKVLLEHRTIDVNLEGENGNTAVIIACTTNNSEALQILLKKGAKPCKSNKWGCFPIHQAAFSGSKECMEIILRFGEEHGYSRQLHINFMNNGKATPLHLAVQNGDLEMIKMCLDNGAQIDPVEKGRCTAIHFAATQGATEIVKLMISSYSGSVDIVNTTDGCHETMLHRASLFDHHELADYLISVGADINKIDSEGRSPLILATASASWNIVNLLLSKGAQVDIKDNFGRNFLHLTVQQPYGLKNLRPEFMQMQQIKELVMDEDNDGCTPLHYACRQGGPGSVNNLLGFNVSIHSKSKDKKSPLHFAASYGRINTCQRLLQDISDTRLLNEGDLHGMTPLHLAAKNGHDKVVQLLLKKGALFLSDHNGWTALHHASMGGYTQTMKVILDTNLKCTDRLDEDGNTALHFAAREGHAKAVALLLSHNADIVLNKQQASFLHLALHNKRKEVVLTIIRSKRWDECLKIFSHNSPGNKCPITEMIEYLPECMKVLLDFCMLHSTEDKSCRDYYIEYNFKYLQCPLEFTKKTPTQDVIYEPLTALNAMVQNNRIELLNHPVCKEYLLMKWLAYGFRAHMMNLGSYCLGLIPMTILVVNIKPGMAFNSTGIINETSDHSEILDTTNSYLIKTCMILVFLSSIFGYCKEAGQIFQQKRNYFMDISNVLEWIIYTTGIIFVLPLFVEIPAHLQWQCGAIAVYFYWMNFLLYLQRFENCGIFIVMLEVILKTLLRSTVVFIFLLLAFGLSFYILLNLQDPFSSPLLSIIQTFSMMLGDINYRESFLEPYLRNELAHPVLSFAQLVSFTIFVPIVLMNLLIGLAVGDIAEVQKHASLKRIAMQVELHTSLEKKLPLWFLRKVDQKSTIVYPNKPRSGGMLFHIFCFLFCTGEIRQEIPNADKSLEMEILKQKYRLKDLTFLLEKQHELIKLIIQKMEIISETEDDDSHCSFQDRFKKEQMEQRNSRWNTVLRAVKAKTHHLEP

rumen epithelium [1] = test: Ca^45 calcium flux across rumen epithelium in conventional Ussing chambers, menthol vs control group; assay type: cell-based; details: menthol 200 μM or 1 mM; N=4 cattle, n=85 epithelia; FIG. 10A
Text: (§1) Supplementary, the transport rate of a substance across the epithelium is quantitatively determined by examining the buffer solution prior to and after a defined test period (in conjunction with the methods of an aspect of the present invention for determining the ammonia flux by means of an ammonia electrode (Thermo Scientific Orion 9512HPBNWP, Thermo Fisher Scientific Inc., Waltham, Mass. 02454) while at the same time registering shifts in the solution pH, or measuring the calcium flux with radioactive isotopes).
(§2) For a direct verification of a modulation of the calcium transport across the rumen epithelium, a radioactive calcium isotope (Ca^45) was employed in further experiments. The measurements were carried out in conventional Ussing chambers without continuous perfusion. Herein, tissue of N=4 (cattle) was collected and n=85 epithelia were used therein.
(§3) The isotope was employed on the mucosal side (corresponding to the side on which the food is) and the emergence on the blood side was measured.
Approach: Three groups were formed. One group remained untreated as control. The other two groups were each treated with menthol at a dose of 200 μM or 1 mM, respectively, and compared to the control (100%).

[2] = tested on: rumen epithelium from cattle; test: Ussing chamber: ammonium-induced transepithelial short-circuit current (Isc) across isolated rumen epithelium; assay type: cell-based; details: for influence on ammonium-induced conductivity / transport across rumen epithelium (profile in words): no concentration stated
Text: The experiments on the intact epithelium take place as already specified (Abdoun, Stumpff et al. 2005; Abdoun, Stumpff et al. 2010). The measuring techniques used are a combination of the Ussing chamber technique developed by Ussing (1949) and the microelectrode technique.
When examining epithelial transport processes with the Ussing chamber, the epithelium is installed in a special chamber, which makes it possible to rinse the two sides of the epithelium (apical: food side; basolateral: blood side) separately of each other with buffer solutions of various composition, wherein the electrophysiological parameters (current and voltage) across the epithelium are traced. Hereby, it is made possible to differentiate between the transport of an uncharged substance (e.g. ammonia, NH3) and the transport of a charged substance (e.g. ammonium, NH4^+), as the former takes place without a change in current and voltage, whereas the latter is coupled with the transfer of a charge and thus changes the transepithelial electrical parameters.
With the help of a special modification, the reaction of individual epithelia to solution changes, taking place very rapidly and smoothly, is also examined over time. Hereby, for example, the reproducibility of a pharmacological intervention on the same piece of epithelium can very well be examined. This modification of the classic Ussing chamber technique is particularly, albeit not exclusively, used for the comparative “screening” of the various substances which are subject of an aspect of the present invention.
The epithelium is horizontally clamped into a modified Ussing chamber, wherein the mucosal side faces upwards. The chamber made of plexi-glass has a cross-section surface of 0.79 cm^2, which is corrected to 1 cm^2. As a protection against damages on the edges of the epithelium, “edge damage”, a silicone ring is in each case placed between chamber and epithelium. The two resulting chambers (mucosal and serosal) are each supplied by their own perfusion system (4-channel-stand-pump, Ismatec SA). With three-way valves, an independent solution change between altogether eight solutions is possible in the two chambers. During storage, the solutions are gassed in their containers with 100% O2. To warm the solutions up to 37° C., the thin perfusion tubes run through a heat exchanger pump. The suction device (Masterflex R/S, Cole Parmer Instrument Company) present in both chambers guarantees a rapid and safe change of solution. In order to ensure that there are no solution change artefacts when adding agonists and antagonists, the substances are pipetted into the respective solution, wherein the gassing ensures a rapid mixing. In this way, pressure fluctuations or an interruption of the flow through the chamber can be safely precluded.
As in the conventional Ussing chamber technique, there are in each case two electrodes near the tissue and two electrodes distant from the tissue for measuring the transepithelial potential difference and the transepithelial current (Isc). The connections between the Ag/AgCl electrodes, which are filled with 3 M KCl, are established via agar bridges. Just as in Strecker (Strecker 2011), the measuring chamber is connected to a “voltage clamp” installation (Ussing chamber unit) in assembly with a microelectrode amplifier (both Biomedical Instruments Co., Germering). A micromanipulator (MF 500) installed above the measuring chamber offers the possibility to move the microelectrode in fine μm steps. Additionally, a microscope as well as a cold-light source are located above the apparatus.
Menthol (Sigma-Aldrich) was dissolved at a concentration of 1 mol·l^−1 in ethanol and pipetted into the used test solution containing ammonium. For an end concentration of 1 mmol·l^−1, 20 μl of this stock solution was added to 20 ml test solution; for 200 μmol·l^−1 correspondingly less. In control experiments, corresponding amounts of pure ethanol were added to the test solution.

TRPV3 = biological target: T2, TRPV3 (Homo sapiens, UniProt Q8NET8); details: cited from earlier work
T2 sequence (Q8NET8 1-790): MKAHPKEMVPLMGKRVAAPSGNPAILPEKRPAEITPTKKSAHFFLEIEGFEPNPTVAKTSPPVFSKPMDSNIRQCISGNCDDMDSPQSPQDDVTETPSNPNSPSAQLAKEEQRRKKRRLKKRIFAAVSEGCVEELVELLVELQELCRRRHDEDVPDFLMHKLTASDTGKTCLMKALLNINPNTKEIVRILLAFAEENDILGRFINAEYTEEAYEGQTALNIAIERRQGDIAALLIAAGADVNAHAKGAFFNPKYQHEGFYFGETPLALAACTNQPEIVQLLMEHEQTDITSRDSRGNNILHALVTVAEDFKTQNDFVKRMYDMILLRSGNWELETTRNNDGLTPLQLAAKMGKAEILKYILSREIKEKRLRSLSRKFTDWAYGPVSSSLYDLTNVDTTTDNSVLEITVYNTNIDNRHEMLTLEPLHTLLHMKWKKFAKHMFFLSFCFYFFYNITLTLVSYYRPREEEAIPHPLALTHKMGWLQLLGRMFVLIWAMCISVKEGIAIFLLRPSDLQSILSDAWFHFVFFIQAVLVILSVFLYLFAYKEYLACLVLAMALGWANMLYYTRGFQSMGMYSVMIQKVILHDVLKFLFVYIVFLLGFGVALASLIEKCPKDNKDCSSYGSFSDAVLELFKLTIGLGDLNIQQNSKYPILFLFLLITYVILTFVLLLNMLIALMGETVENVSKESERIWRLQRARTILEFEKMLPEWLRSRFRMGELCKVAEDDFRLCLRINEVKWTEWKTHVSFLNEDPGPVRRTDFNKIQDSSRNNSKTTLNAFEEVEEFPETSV

TRPM8 = TRPM8 (Homo sapiens, UniProt Q7Z2W7); details: cited from earlier work
Sequence of TRPM8 (Q7Z2W7 whole entry, species assumed): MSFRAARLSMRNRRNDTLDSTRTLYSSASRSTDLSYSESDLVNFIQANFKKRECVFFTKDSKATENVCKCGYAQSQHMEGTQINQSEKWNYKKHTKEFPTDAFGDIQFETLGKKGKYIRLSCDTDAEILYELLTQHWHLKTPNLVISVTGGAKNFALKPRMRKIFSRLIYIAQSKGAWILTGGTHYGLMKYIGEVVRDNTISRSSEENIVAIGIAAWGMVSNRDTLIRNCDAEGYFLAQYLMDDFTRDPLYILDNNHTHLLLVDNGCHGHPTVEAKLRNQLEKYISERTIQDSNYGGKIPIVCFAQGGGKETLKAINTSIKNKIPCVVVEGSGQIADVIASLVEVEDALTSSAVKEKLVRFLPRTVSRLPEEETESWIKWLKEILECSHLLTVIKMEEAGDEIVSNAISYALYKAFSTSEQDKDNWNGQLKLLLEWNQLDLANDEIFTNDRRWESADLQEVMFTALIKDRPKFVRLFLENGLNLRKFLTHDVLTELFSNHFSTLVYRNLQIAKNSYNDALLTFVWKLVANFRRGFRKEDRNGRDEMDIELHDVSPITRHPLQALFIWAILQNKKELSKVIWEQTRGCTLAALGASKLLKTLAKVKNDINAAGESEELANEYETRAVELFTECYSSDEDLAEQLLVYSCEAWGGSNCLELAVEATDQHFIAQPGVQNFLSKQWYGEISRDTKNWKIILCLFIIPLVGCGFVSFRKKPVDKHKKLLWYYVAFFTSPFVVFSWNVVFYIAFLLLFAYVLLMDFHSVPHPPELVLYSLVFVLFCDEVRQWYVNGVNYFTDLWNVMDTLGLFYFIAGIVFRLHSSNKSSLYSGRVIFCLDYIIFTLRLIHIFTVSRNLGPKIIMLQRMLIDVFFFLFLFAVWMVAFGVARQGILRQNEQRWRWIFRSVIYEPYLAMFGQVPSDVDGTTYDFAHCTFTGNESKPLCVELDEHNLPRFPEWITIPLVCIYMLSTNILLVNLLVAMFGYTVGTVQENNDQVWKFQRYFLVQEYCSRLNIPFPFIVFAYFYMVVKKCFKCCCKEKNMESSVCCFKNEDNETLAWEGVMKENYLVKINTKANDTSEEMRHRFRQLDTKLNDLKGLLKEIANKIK

E. coli = details: 0.3% menthol in feed dry mass (8 g menthol/day) for 30 days, bulls; cited from earlier work
[3] = corresponding to 30 g/60 l; cited from earlier work
[4] = tested on: bacteria flora in the ruminal fluid; details: in vitro, thymol 3-12 g/60 l; cited from earlier work
rumen epithelium [5] = test: Ca^45 calcium flux across rumen epithelium in conventional Ussing chambers, thymol vs basal value; assay type: cell-based, one cow, one sheep; details: after adding thymol; N=2, n=44 epithelia; FIG. 10B
Text: as §1, §2, §3
Approach: First, a basal value of the Ca flux across the rumen epithelium was detected. Then a substance was added. The subsequently measured Ca flux was compared to the starting value (100%). […]

bacteria flora = details: 1.5 mM thymol (corresponding to 14 g/60 l ruminal fluid); cited from earlier work

Sequence of TRPV4 (Q9HBA0 whole entry, species assumed): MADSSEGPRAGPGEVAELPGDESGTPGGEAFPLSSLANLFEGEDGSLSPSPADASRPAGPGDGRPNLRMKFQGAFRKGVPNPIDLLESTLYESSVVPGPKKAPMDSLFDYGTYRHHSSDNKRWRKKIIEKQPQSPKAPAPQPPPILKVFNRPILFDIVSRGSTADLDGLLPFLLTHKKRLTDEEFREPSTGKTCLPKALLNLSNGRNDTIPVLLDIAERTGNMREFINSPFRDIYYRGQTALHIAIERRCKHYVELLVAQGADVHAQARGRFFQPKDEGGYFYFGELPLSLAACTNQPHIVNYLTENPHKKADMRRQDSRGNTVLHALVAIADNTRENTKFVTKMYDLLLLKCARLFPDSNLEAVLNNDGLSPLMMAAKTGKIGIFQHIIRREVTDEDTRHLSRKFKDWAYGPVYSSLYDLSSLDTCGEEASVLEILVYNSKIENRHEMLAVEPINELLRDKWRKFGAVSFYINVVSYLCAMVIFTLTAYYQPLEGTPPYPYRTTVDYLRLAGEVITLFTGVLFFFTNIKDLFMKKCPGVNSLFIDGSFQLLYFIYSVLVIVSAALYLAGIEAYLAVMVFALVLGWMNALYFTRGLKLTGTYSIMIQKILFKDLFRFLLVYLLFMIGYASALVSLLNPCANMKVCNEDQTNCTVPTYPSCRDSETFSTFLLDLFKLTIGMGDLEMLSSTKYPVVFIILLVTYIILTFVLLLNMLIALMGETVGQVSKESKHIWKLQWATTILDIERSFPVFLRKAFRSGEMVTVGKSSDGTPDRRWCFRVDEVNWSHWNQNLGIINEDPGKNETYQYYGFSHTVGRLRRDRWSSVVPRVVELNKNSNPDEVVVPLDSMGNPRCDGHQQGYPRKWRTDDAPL

Structure (SMILES): C=C1CC[C@@H]2[C@](C)(CO)[C@H](O)CC[C@@]2(C)[C@@H]1/C=C/C1=CC(C(C[C@@H]2C(=C)CC[C@@H]3[C@](C)(CO)[C@H](O)CC[C@]32C)C2=CCOC2=O)OC1=O (some centres unmarked) [Bisandrographolide A]
- Effect on TRPV4 (TRPV4): Agonist

Structure (SMILES): CCCCCc1cc(O)c2c(c1)OC(C)(C)[C@@H]1CCC(C)=C[C@@H]21 [Tetrahydrocannabinol, tetrahydrocannabinol]
- Effect on TRPV2 (TRPV2): Agonist
- Effect on TRPA1 (TRPA1): Agonist

Structure (SMILES): CC1CCC(C(C)C)C(O)C1 (centres unmarked) [menthol]
- calcium transport across the rumen tissue compared to control group (100%) (rumen epithelium [1]): concentration-dependent increase in the calcium transport
- transepithelial current, Median ([2]; 200 μM menthol in 40 mM NH4^+, n=11, before −30.65): −34.21 μA · cm^−2
- transepithelial current, MV ([2]; 200 μM menthol in 40 mM NH4^+, n=11, before −30.99, washout −26.42): −36.34 μA · cm^−2
- change of transepithelial current or voltage ([2]; 200 μmol·l^−1 to 1 mmol·l^−1 added to solution containing ammonium, apical): further considerable rise in the transepithelial current
- change of short-circuit current (Isc) ([2]; 1 mM menthol after 40 mM NH4Cl mucosal, FIG. 1 and 2, 13 measurements, three epithelia): further rise in that current; also recorded: statistically significant increase in the current across the epithelium
- transepithelial current, Median ([2]; 1 mM menthol in 40 mM NH4^+, n=12, before −22.76): −26.90 μA · cm^−2
- transepithelial current, MV ([2]; 1 mM menthol in 40 mM NH4^+, n=12, before −24.20, washout −20.88): −28.73 μA · cm^−2
- influence on ammonium-induced conductivity / transport across rumen epithelium (profile in words) [2]: significantly influenced
- Effect on TRPV3 (TRPV3): nonspecific
- Effect on TRPM8 (TRPM8): potent TRPM8 agonist
- Effect on TRPA1 (TRPA1): Antagonist
- influence on the amount of E. coli in the feces (E. coli): no influence on the amount of E. coli in the feces

Structure (SMILES): Cc1ccc(C(C)C)c(O)c1 [thymol]
- concentration with significant influence on pH, NH3 concentration and production of volatile fatty acids (VFA) [3]: ≥ 500 mg/1
- effect on the bacteria flora in the ruminal fluid [4]: no effect on the bacteria flora in the ruminal fluid
- Ca flux across the rumen epithelium compared to starting value (100%) (rumen epithelium [5]): no significant long-term reduction of the calcium transport; also recorded: trend to increase the calcium resorption
- influence on methane, ammonium, acetate and propionate production (bacteria flora): no influence on the methane, ammonium, acetate and propionate production
- transepithelial current, Median ([2]; 100 μM thymol in 40 mM NH4^+, n=4, before −19.30): −19.35 μA · cm^−2
- transepithelial current, MV ([2]; 100 μM thymol in 40 mM NH4^+, n=4, before −22.47, washout −15.82, p = 0.498): −22.19 μA · cm^−2
- influence on ammonium-induced conductivity / transport across rumen epithelium (profile in words) [2]: inhibition, which can still be verified after washing out
- Effect on TRPV3 (TRPV3): TRPV3 agonist; also recorded: nonspecific
